From patent US11478451B1, “Macrocyclic chlorine substituted indole derivatives” (Bayer Aktiengesellschaft, priority 2017, dated 2022)
Counter-ions that a name gives are not always drawn. Like-named read-outs stand apart in the source and are kept apart here.

What was measured:
HMC-1-8 cells = test: Antiproliferation assay (CellTiter-Glo, 72 h), HMC-1-8; type: cell-based; conditions: IC50, median, HMC-1-8, 72 h, read-out: Antiproli HMC-1-8 [M] median
Description: Assessment of the Anti-Proliferative Effect of Compounds in Different Cell Lines
The impact of compounds on the proliferation of different cell lines was assessed using the CellTiter-Glo® Luminescent Cell Viability reagent from Promega (G7573).
In parallel, cells were plated in a reference (day 0) plate for time zero determination.
Rim wells were excluded. The cells were incubated for 72 h hours in a humidified incubator at 37° C. The day 0 plate was measured by adding 30 μL/well of CTG solution (CellTiter-Glo® Luminescent Cell Viability reagent, Promega G7573) to time zero wells in the reference plate followed by a 10 minutes incubation and luminescence reading at 0.1 ms. using the PHERAstar FS microplate reader (BMG Labtech).
After 72 h incubation, the treated plates were measured in the same way as the day 0 plate mentioned above.

SUDHL5 cells [1] = test: Induction of caspase-3/7 activity (Caspase-Glo 3/7), SUDHL5; type: cell-based; conditions: EC50, median, SUDHL5, 3 h treatment
Summary of the method: (§1)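 DLBCL lines treated with compounds for 3 h at 37 °C in a humidified incubator; caspase-3/7 activity read with Caspase-Glo 3/7 luminescent reagent. Medium-only background subtracted from all values.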

SUDHL10 cells [2] = test: Induction of caspase-3/7 activity (Caspase-Glo 3/7), SUDHL10; type: cell-based; conditions: EC50, median, SUDHL10, 3 h treatment
Summary of the method: as §1

AMO-1 cells = test: Antiproliferation assay (CellTiter-Glo, 72 h), AMO-1; type: cell-based; conditions: IC50, median, AMO-1, 72 h, read-out: Antiproli AMO-1 [M] median
Summary of the method: (§2)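 Cells were incubated with compounds for 72 h at 37°C. Viability was then read by CellTiter-Glo luminescence, and a parallel day 0 plate read the same way gave the time-zero signal.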

SUDHL5 cells [3] = test: Induction of cytotoxicity (CellTiter-Glo, 5 h), SUDHL5; conditions: SUDHL5, 5 h
SUDHL5 cells [4] = test: Antiproliferation assay (CellTiter-Glo, 72 h), SUDHL5; type: cell-based; conditions: IC50, median, SUDHL5, 72 h, read-out: Antiproli SUDHL5 [M] (median)
Summary of the method: as §2

SUDHL10 cells [5] = test: Induction of cytotoxicity (CellTiter-Glo, 5 h), SUDHL10; conditions: SUDHL10, 5 h
[6] = Homo sapiens, SU-DHL-5, 5 h, read-out: Cytotox SUDHL5 [M] (median), IC50, median
[7] = Homo sapiens, SU-DHL10, 5 h, read-out: Cytotox SUDHL10 [M] (median), IC50, median
[8] = read-out: Cytotox SUDHL5 [M] (median), IC50, median
[9] = read-out: Cytotox SUDHL10 [M] (median), IC50, median

SMILES	EC50 (SUDHL5 cells [1]; Homo sapiens, SU-DHL-5, 3 h) [nM]	EC50 (SUDHL10 cells [2]; Homo sapiens, SU-DHL10, 3 h) [nM]	IC50 (SUDHL5 cells [4]; Homo sapiens, SU-DHL-5, 72 h) [M]	EC50 (SUDHL10 cells [2]) [nM]	IC50 (HMC-1-8 cells; 72 h) [M]	IC50 (AMO-1 cells; Homo sapiens, AMO1, 72 h) [M]	IC50 (SUDHL5 cells [3]; [6]) [M]	IC50 (SUDHL10 cells [5]; [7]) [M]	IC50 (AMO-1 cells) [M]	IC50 (SUDHL10 cells [5]; [9]) [M]	other results
Cc1c2c(nn1CCCN1CCN(C)CC1)COCCCCn1c(C(=O)O)c(CCCOc3cccc4ccccc34)c3ccc(Cl)c-2c31 (racemic) [Example 48, (rac)-4-chloro-3-methyl-2-[3-(4-methylpiperazin-1-yl)propyl]-7-{3-[(naphthalen-1-yl)oxy]propyl}-2,10,11,12,13,15-hexahydropyrazolo[4′,3′:9,10][1,6]oxazacycloundecino[8,7,6-hi]indole-8-carboxylic acid]	160	400	2e-07	–	8.2e-07	1.8e-07	1.8e-07	3e-07	–	–	–
Cc1c2c(nn1C)COCC(F)(F)CCn1c(C(=O)O)c(CCCOc3cccc4ccccc34)c3ccc(Cl)c-2c31 (racemic) [Example 55, (rac)-4-chloro-12,12-difluoro-2,3-dimethyl-7-{3-[(naphthalen-1-yl)oxy]propyl}-2,10,11,12,13,15-hexahydropyrazolo[4′,3′:9,10][1,6]oxazacycloundecino[8,7,6-hi]indole-8-carboxylic acid]	–	–	–	520	2.2e-06	–	–	–	1.4e-06	7.4e-07	EC50 (SUDHL5 cells [1]): 600 nM; IC50 (SUDHL5 cells [3]; [8]): 6.7e-07 M; IC50 (SUDHL5 cells [4]): 4.3e-07 M
Cc1c2c(nn1C)CN(CC(F)(F)F)CCCCn1c(C(=O)O)c(CCCOc3cccc4cc(F)ccc34)c3ccc(Cl)c-2c31 (racemic) [Example 58, (rac)-4-chloro-7-{3-[(6-fluoronaphthalen-1-yl)oxy]propyl}-2,3-dimethyl-14-(2,2,2-trifluoroethyl)-10,11,12,13,14,15-hexahydro-2H-pyrazolo[3′,4′:8,9][1,6]diazacycloundecino[10,11,1-hi]indole-8-carboxylic acid]	510	1500	6.2e-07	–	5.8e-06	1.7e-06	8.4e-07	2e-06	–	–	–
CCc1c2c(nn1C)CN(CC(F)(F)F)CCCCn1c(C(=O)O)c(CCCOc3cccc4cc(F)ccc34)c3ccc(Cl)c-2c31 (racemic) [Example 61, (rac) 4-chloro-3-ethyl-7-{3-[(6-fluoronaphthalen-1-yl)oxy]propyl}-2-methyl-14-(2,2,2-trifluo-roethyl)-10,11,12,13,14,15-hexahydro-2H-pyrazolo[3′,4′:8,9][1,6]diazacycloundecino[10,11,1-hi]indole-8-carboxylic acid]	–	440	2.5e-07	–	1.7e-06	6.8e-07	3.4e-07	5.3e-07	–	–	–
Cc1c2c(nn1C)COCCC(F)(F)Cn1c(C(=O)O)c(CCCOc3cccc4ccccc34)c3ccc(Cl)c-2c31 (racemic) [Example 68, (rac)-4-chloro-11,11-difluoro-2,3-dimethyl-7-[3-(1-naphthyloxy)propyl]-2,10,11,12,13,15-hexahydropyrazolo[4′,3′:9,10][1,6]oxazacycloundecino[8,7,6-hi]indole-8-carboxylic acid]	1400	3100	2.6e-06	–	7.9e-06	2.6e-06	–	3.3e-06	–	–	–
CCc1c2c(nn1C)CN(CCC1CCOCC1)CCCCn1c(C(=O)O)c(CCCOc3cccc4cc(F)ccc34)c3ccc(Cl)c-2c31 (racemic) [Example 135, (rac)-4-chloro-3-ethyl-7-{3-[(6-fluoronaphthalen-1-yl)oxy]propyl}-2-methyl-14-[2-(oxan-4-yl)ethyl]-10,11,12,13,14,15-hexahydro-2H-pyrazolo[3′,4′:8,9][1,6]diazacycloundecino[10,11,1-hi]indole-8-carboxylic acid]	–	140	1.2e-07	–	8.7e-07	1.2e-07	–	1.5e-07	–	–	–
CCc1c2c(nn1C)COCC(F)(F)CCn1c(C(=O)O)c(CCCOc3cccc4cc(F)ccc34)c3ccc(Cl)c-2c31 (single isomer, unassigned) [Example 86, (+)-4-chloro-3-ethyl-12,12-difluoro-7-{3-[(6-fluoronaphthalen-1-yl)oxy]propyl}-2-methyl-2,10,11,12,13,15-hexahydropyrazolo[4′,3′:9,10][1,6]oxazacycloundecino[8,7,6-hi]indole-8-carboxylic acid]	–	–	–	–	–	–	–	–	–	–	IC50 (HMC-1-8 cells; listed as 086): 6.4e-06 M; EC50 (SUDHL5 cells [1]; listed as 086): 470 nM; EC50 (SUDHL10 cells [2]; listed as 086): 620 nM; IC50 (SUDHL5 cells [3]; read-out: Cytotox SUDHL5 [M] (median), IC50, median, listed as 086): 6.3e-07 M; IC50 (SUDHL5 cells [4]; listed as 086): 9.3e-07 M; IC50 (SUDHL10 cells [5]; read-out: Cytotox SUDHL10 [M] (median), IC50, median, listed as 086): 9.7e-07 M

The next lines start with results.

EC50 (SUDHL5 cells [1]; Homo sapiens, SU-DHL-5, 3 h) [nM]	EC50 (SUDHL10 cells [2]; Homo sapiens, SU-DHL10, 3 h) [nM]	IC50 (SUDHL5 cells [4]; Homo sapiens, SU-DHL-5, 72 h) [M]	EC50 (SUDHL10 cells [2]) [nM]	SMILES	IC50 (HMC-1-8 cells; 72 h) [M]	IC50 (AMO-1 cells; Homo sapiens, AMO1, 72 h) [M]	IC50 (SUDHL5 cells [3]; [6]) [M]	IC50 (SUDHL10 cells [5]; [7]) [M]	IC50 (AMO-1 cells) [M]	IC50 (SUDHL10 cells [5]; [9]) [M]	other results
–	–	–	380	CCc1c2c(nn1C)CN(CC(F)F)CCCCn1c(C(=O)O)c(CCCOc3cccc4cc(F)ccc34)c3ccc(Cl)c-2c31 (racemic) [Example 62, (rac)-4-chloro-14-(2,2-difluoroethyl)-3-ethyl-7-{3-[(6-fluoronaphthalen-1-yl)oxy]propyl}-2-methyl-10,11,12,13,14,15-hexahydro-2H-pyrazolo[3′,4′:8,9][1,6]diazacycloundecino[10,11,1-hi]indole-8-carboxylic acid]	2.2e-06	–	–	–	2.2e-07	3.6e-07	IC50 (SUDHL5 cells [3]; [8]): 3.1e-07 M; IC50 (SUDHL5 cells [4]): 3.4e-07 M
480	210	3.1e-07	–	CCc1c2c(nn1C)COCCC(F)(F)Cn1c(C(=O)O)c(CCCOc3cccc4cc(F)ccc34)c3ccc(Cl)c-2c31 (racemic) [Example 96, (rac)-4-chloro-3-ethyl-11,11-difluoro-7-{3-[(6-fluoronaphthalen-1-yl)oxy]propyl}-2-methyl-2,10,11,12,13,15-hexahydropyrazolo[4′,3′:9,10][1,6]oxazacycloundecino[8,7,6-hi]indole-8-carboxylic acid]	5.3e-06	4.9e-07	4.7e-07	3.5e-07	–	–	–
–	–	–	500	CCc1c2c(nn1C)COCC1CC1Cn1c(C(=O)O)c(CCCOc3cccc4cc(F)ccc34)c3ccc(Cl)c-2c31 (racemic) [Example 103, (rac)-3-chloro-4-ethyl-14-{3-[(6-fluoronaphthalen-1-yl)oxy]propyl}-5-methyl-5,7,9a,10,10a,11-hexahydro-9H-cyclopropa[3,4]pyrazolo[4′,3′:9,10][1,6]oxazacycloundecino[8,7,6-hi]indole-13-carboxylic acid]	7.1e-06	–	–	–	8.2e-07	7e-07	IC50 (SUDHL5 cells [3]; [8]): 5.7e-07 M; IC50 (SUDHL5 cells [4]): 5.5e-07 M
440	290	5.5e-07	–	CCc1c2c(nn1C)COCC1(CCn3c(C(=O)O)c(CCCOc4cccc5cc(F)ccc45)c4ccc(Cl)c-2c43)CC1 (racemic) [Example 109, (rac)-4′-chloro-3′-ethyl-7′-{3-[(6-fluoronaphthalen-1-yl)oxy]propyl}-2′-methyl-2′,10′,11′,15′-tetrahydro-13′H-spiro[cyclopropane-1,12′-pyrazolo[4′,3′:9,10][1,6]oxazacycloundecino[8,7,6-hi]indole]-8′-carboxylic acid]	4.3e-06	–	5.9e-07	2.8e-07	–	–	–
–	–	2.1e-07	160	CCc1c2c(nn1C)COCC1(CCn3c(C(=O)O)c(CCCOc4cccc5cc(F)ccc45)c4ccc(Cl)c-2c43)CC1 [Example 110, (−)-4′-chloro-3′-ethyl-7′-{3-[(6-fluoronaphthalen-1-yl)oxy]propyl}-2′-methyl-2′,10′,11′,15′-tetrahydro-13′H-spiro[cyclopropane-1,12′-pyrazolo[4′,3′:9,10][1,6]oxazacycloundecino[8,7,6-hi]indole]-8′-carboxylic acid-N-ethylethanamine salt]	1.4e-06	–	–	–	3.5e-07	2.8e-07	EC50 (SUDHL5 cells [1]): 120 nM
